# In patent US12364738B2, “Composition comprising at least one enzyme and at least one microbicidal molecule for the prevention or treatment of post-implant infections” (ONELIFE S.A., priority 2016, dated 2025):
# Where two headings read alike, the source gives them in different places. Marks after values point to notes of the source that are not given here.
# Legend:
# [1] = cited from earlier work
# [2] = test system: isolate 1, S. aureus isolated from a pacemaker, biofilm; assay: Confocal microscopic images with LIVE/DEAD staining, isolate 1; format: cell-based; details: 24 h biofilm, 24 h treatment, ciprofloxacin 1 mg/L, FIGS. 4 and 5
# Description: For isolate 1 (S. aureus isolated from a pacemaker on which a biofilm developed in the human body after implantation), confocal images were taken and correspond to FIGS. 3 to 5.
# Before obtaining the different images, staining was carried out with the LIVE/DEAD kit (Invitrogen) for 30 minutes before rinsing with a PBS buffer.
# [3] = test system: isolate 1, S. aureus MRSA strain 80124430375 (pacemaker), biofilm; details: static model, 24 h biofilm, 24 h treatment, ciprofloxacin 0.15 to 40 mg/L
# Description: (§1) The measurement was conventionally carried out by absorption photometry (measurement at 590 nm with the Spectramax M4 equipment).
# (§2) From each of the isolates given in table 1, biofilms (n=4) were developed over 24 hours at a temperature of 37° C. in the wells of a 96-well plate containing 200 μL of a TSB culture medium (Tryptic Soy Broth VWR) supplemented with 1% glucose and 2% sodium chloride.
# (§3) Before proceeding with the measurement of the viability of the bacterial cells with resazurin, the plates containing the developed biofilms were washed with a PBS buffer (pH=7.4) then incubated with resazurin (0.01 mg/L) for 1 hour in the dark.
# [4] = test system: isolate 2, S. aureus MRSA strain 80224422456 (knee prosthesis), biofilm; details: static model, 24 h biofilm, 24 h treatment, ciprofloxacin 0.15 to 40 mg/L
# Description: as §1, §2, §3
# [5] = test system: isolate 3, S. aureus MRSA strain 80124474762 (knee screw), biofilm; details: static model, 24 h biofilm, 24 h treatment, ciprofloxacin 0.15 to 40 mg/L
# Description: as §1, §2, §3
# [6] = test system: isolate 4, S. epidermis strain 80224420266 (central venous catheter), biofilm; details: static model, 24 h biofilm, 24 h treatment, ciprofloxacin 0.15 to 40 mg/L
# Description: as §1, §2, §3
# [7] = test system: isolate 5, E. coli strain 6081 (urinary catheter), biofilm; details: static model, 24 h biofilm, 24 h treatment, ciprofloxacin 0.15 to 40 mg/L
# Description: as §1, §2, §3
# [8] = test system: isolate 6, E. coli strain 5701 (orthopaedic implant), biofilm; details: static model, 24 h biofilm, 24 h treatment, ciprofloxacin 0.15 to 40 mg/L
# Description: as §1, §2, §3
# [9] = test system: isolate 7, E. faecalis strain 9794 (urinary catheter), biofilm; details: static model, 24 h biofilm, 24 h treatment, ciprofloxacin 0.15 to 40 mg/L
# Description: as §1, §2, §3
# [10] = test system: isolate 8, E. faecalis strain 9781 (urinary catheter), biofilm; details: static model, 24 h biofilm, 24 h treatment, ciprofloxacin 0.15 to 40 mg/L
# Description: as §1, §2, §3
# [11] = test system: isolate 9, E. faecalis strain 9555 (urinary catheter), biofilm; details: static model, 24 h biofilm, 24 h treatment, ciprofloxacin 0.15 to 40 mg/L
# Description: as §1, §2, §3
# [12] = test system: isolate 10, P. aeroginosa strain DIV5508 (central venous catheter), biofilm; details: static model, 24 h biofilm, 24 h treatment, ciprofloxacin 0.15 to 40 mg/L
# Description: as §1, §2, §3
# [13] = test system: isolate 11, P. aeroginosa strain 04/190 (urinary catheter), biofilm; details: static model, 24 h biofilm, 24 h treatment, ciprofloxacin 0.15 to 40 mg/L
# Description: as §1, §2, §3
# [14] = test system: isolate 1, S. aureus isolated from a pacemaker, biofilm; details: dynamic model, 48 h biofilm on PEG protrusions, 24 h treatment, agitation 120 RPM
# Description: (§4) In order to judge the effectiveness of a post-implantation treatment carried out with a composition according to the invention, the viability of the bacteria was measured by following the development of the colour of the resazurin (7-Hydroxy-3H-phenoxazin-3-on 10-oxide), this colour changing according to the redox potential which depends on microbial activity. The measurement was conventionally carried out by absorption photometry (measurement at 590 nm with the Spectramax M4 equipment).
# (§5) Before proceeding with the measurement of the viability of the bacterial cells with resazurin, the PEG plates with the protrusions containing the developed biofilms were incubated with resazurin for 2 hours in the dark.
# [15] = test system: isolate 5, E. coli isolated from a urinary catheter, biofilm; details: dynamic model, 48 h biofilm on PEG protrusions, 24 h treatment, agitation 120 RPM
# Description: as §4, §5
# [16] = serum, after administration of the antibiotic, based on EUCAST, used as test concentration
structure (smiles),measurement,setting,value
COc1c(N2C[C@@H]3CCCN[C@@H]3C2)c(F)cc2c(=O)c(C(=O)O)cn(C3CC3)c12 [moxifloxacin],"Cmax, maximum serum concentration after administration of the antibiotic",[1]; [16],3600 ng/mL
same,"Cmin, minimum serum concentration",[1]; [16],300 ng/mL
NC[C@H]1O[C@H](O[C@H]2[C@H](O)[C@@H](O[C@H]3O[C@H](CO)[C@@H](O)[C@H](N)[C@H]3O)[C@H](N)C[C@@H]2N)[C@H](N)C[C@@H]1O [tobramycin],"Cmin, minimum serum concentration",[1]; in vivo,900 ng/mL
same,"Cmax, maximum serum concentration after administration of the antibiotic",[1]; [16],4000 ng/mL
NCC[C@H](O)C(=O)N[C@@H]1C[C@H](N)[C@@H](O[C@H]2O[C@H](CN)[C@@H](O)[C@H](O)[C@H]2O)[C@H](O)[C@H]1O[C@H]1O[C@H](CO)[C@@H](O)[C@H](N)[C@H]1O [amikacin],"Cmin, minimum serum concentration",[1]; in vivo,5000 ng/mL
same,"Cmax, maximum serum concentration after administration of the antibiotic",[1]; [16],24000 ng/mL
"O=C(O)c1cn(C2CC2)c2cc(N3CCNCC3)c(F)cc2c1=O [solution A, ciprofloxacin]",live/dead state of the bacteria in confocal images,[2],numerous bacteria are still alive
same,Concentration of the antibiotic molecule in a solution comprising the antibiotic alone (solution A) to reduce the viability of the bacteria by 50% (EC50),[3],>40^a mg/L
same,Concentration of the antibiotic molecule in a solution comprising the antibiotic alone (solution A) to reduce the viability of the bacteria by 50% (EC50),[4],0.8 µg/mL
same,Concentration of the antibiotic molecule in a solution comprising the antibiotic alone (solution A) to reduce the viability of the bacteria by 50% (EC50),[5],1.2 µg/mL
same,Concentration of the antibiotic molecule in a solution comprising the antibiotic alone (solution A) to reduce the viability of the bacteria by 50% (EC50),[6],1.77 µg/mL
same,Concentration of the antibiotic molecule in a solution comprising the antibiotic alone (solution A) to reduce the viability of the bacteria by 50% (EC50),[7],2.7 µg/mL
same,Concentration of the antibiotic molecule in a solution comprising the antibiotic alone (solution A) to reduce the viability of the bacteria by 50% (EC50),[8],>40 µg/mL
same,Concentration of the antibiotic molecule in a solution comprising the antibiotic alone (solution A) to reduce the viability of the bacteria by 50% (EC50),[9],>40 µg/mL
same,Concentration of the antibiotic molecule in a solution comprising the antibiotic alone (solution A) to reduce the viability of the bacteria by 50% (EC50),[10],>40 µg/mL
same,Concentration of the antibiotic molecule in a solution comprising the antibiotic alone (solution A) to reduce the viability of the bacteria by 50% (EC50),[11],>40 µg/mL
same,Concentration of the antibiotic molecule in a solution comprising the antibiotic alone (solution A) to reduce the viability of the bacteria by 50% (EC50),[12],>40 µg/mL
same,Concentration of the antibiotic molecule in a solution comprising the antibiotic alone (solution A) to reduce the viability of the bacteria by 50% (EC50),[13],>40 µg/mL
same,Concentration of the antibiotic molecule in a solution comprising the antibiotic alone (solution A) to reduce the viability of the bacteria by 50% (EC50),[14],0.7 µg/mL
same,Concentration of the antibiotic molecule in a solution comprising the antibiotic alone (solution A) to reduce the viability of the bacteria by 50% (EC50),[15],3.18 µg/mL
same,"Cmin, minimum serum concentration",[1]; [16],600 ng/mL
C[C@@H](O)[C@H]1C(=O)N2C(C(=O)O)=C(S[C@@H]3CN[C@H](C(=O)N(C)C)C3)[C@H](C)[C@H]12 [meropenem],"Cmin, minimum serum concentration",[1]; in vivo,100 ng/mL
same,"Cmax, maximum serum concentration after administration of the antibiotic",[1]; [16],20000 ng/mL
